pIC50: −log10 of the molar value.
Target: ATM (h) (Homo sapiens (Human), UniProt Q13315)
Test: ATM assay at Eurofins KinaseProfiler with adjusted concentration range (IC50^II)
Assay type: biochemical
Conditions: Table 13; assay variant (I or II) not given; read-out: IC50

Sequence of ATM (h) (Q13315 whole entry): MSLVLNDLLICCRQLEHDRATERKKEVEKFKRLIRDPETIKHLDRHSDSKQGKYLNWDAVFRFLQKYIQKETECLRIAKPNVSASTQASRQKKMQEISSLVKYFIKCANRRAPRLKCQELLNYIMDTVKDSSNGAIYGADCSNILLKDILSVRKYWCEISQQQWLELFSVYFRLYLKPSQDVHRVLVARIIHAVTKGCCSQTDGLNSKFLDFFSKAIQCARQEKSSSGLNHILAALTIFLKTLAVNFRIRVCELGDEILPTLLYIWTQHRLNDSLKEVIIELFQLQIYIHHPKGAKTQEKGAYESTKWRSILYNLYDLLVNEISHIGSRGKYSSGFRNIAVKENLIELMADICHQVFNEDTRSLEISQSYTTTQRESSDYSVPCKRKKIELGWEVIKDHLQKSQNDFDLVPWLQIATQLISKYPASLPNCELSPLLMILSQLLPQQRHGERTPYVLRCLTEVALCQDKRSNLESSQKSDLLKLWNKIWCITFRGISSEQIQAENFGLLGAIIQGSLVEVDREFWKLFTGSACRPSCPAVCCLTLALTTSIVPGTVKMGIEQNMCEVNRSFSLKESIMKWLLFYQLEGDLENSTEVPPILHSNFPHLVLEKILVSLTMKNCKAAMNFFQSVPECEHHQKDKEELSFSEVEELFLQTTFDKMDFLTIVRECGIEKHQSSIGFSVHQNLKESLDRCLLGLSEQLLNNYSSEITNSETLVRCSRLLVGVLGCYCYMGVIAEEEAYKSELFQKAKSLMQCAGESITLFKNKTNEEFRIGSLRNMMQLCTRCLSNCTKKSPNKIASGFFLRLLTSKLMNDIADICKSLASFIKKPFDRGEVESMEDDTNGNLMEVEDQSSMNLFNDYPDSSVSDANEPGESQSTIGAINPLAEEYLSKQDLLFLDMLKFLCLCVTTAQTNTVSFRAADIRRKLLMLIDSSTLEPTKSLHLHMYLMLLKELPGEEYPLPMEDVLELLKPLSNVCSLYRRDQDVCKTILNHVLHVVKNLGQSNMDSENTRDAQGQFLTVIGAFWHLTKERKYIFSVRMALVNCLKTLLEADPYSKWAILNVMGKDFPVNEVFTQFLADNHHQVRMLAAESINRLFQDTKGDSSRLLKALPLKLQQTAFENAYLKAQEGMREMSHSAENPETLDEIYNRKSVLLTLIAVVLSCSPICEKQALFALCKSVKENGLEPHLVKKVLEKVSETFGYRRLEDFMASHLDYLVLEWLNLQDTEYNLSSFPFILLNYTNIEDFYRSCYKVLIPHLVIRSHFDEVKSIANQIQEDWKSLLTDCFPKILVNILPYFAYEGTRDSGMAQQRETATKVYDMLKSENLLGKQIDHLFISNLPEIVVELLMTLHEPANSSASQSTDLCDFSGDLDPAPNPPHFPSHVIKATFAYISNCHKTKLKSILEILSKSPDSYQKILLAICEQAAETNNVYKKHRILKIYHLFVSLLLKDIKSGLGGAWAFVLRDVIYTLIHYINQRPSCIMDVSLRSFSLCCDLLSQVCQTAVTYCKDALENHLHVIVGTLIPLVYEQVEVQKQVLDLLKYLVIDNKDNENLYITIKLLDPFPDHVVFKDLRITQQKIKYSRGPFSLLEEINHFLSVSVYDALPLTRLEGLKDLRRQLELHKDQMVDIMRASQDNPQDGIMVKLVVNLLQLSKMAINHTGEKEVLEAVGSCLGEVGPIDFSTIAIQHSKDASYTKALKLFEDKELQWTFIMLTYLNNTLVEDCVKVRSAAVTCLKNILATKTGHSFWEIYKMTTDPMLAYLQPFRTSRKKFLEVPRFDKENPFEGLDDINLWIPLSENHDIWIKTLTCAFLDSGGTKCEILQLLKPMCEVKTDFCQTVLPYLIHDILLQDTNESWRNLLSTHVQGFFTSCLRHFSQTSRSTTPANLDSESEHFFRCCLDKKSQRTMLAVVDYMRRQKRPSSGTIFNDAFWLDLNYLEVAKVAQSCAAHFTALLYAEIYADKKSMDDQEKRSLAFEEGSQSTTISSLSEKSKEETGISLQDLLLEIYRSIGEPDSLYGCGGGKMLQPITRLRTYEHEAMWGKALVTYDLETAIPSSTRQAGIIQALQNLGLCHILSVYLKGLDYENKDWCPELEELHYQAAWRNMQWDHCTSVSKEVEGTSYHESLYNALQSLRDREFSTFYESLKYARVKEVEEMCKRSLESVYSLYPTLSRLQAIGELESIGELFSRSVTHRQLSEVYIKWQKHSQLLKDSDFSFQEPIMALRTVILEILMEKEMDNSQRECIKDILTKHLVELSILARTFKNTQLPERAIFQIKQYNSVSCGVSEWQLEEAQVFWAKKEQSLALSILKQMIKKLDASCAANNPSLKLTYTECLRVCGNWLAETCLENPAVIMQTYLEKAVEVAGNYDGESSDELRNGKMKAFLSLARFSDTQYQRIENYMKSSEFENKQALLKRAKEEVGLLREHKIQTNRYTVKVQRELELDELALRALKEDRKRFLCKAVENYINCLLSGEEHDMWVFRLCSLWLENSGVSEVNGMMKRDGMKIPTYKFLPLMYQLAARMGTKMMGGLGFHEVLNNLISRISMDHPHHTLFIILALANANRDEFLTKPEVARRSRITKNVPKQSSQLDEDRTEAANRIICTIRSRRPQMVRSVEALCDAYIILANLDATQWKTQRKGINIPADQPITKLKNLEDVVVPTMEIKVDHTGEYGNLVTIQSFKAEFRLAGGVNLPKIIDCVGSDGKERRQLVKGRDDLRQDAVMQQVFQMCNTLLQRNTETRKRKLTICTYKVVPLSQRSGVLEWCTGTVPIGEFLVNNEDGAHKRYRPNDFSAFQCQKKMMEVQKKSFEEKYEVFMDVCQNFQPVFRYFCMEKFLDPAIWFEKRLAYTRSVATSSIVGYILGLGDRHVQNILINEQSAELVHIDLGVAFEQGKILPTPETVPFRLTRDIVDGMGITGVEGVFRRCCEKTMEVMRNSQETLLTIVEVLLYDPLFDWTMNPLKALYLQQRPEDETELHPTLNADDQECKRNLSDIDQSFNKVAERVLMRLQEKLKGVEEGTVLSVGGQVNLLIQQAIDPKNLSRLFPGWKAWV

Row | SMILES | pIC50
1 | COc1cc2ncn(-c3ccc4c(c3)N(S(C)(=O)=O)CC4)c2cc1-c1ccc(OCCCN(C)C)nc1 [TD-630, 3-((5-(5-methoxy-1-(1-(methylsulfonyl)indolin-6-yl)-1H-benzo[d]imidazol-6-yl)pyridin-2-yl)oxy)-N,N-dimethylpropan-1-amine] | 6.41

Same assay, conditions: Table 13; read-out: IC50 [nM], IC50^II

Row | SMILES | IC50 [nM]
2 | CS(=O)(=O)N1CCc2ccc(-n3cnc4ccc(-c5ccc(CO)cc5)cc43)cc21 [TD-587, (4-(1-(1-(methylsulfonyl)indolin-6-yl)-1H-benzo[d]imidazol-6-yl)phenyl)methanol] | 106
3 | CN(C)CCc1nc2cc(-c3ccc4ncn(-c5ccc6c(c5)N(S(C)(=O)=O)CC6)c4c3)ccc2[nH]1 [TD-607, N,N-dimethyl-2-(3′-(1-(methylsulfonyl)indolin-6-yl)-1H,3′H-[5,5′-bibenzo[d]imidazol]-2-yl)ethan-1-amine] | 2
4 | CN(C)CCCn1cc(-c2ccc3ncn(-c4ccc5c(c4)N(S(C)(=O)=O)CC5)c3n2)cn1 [TD-623, N,N-dimethyl-3-(4-(3-(1-(methylsulfonyl)indolin-6-yl)-3H-imidazo[4,5-b]pyridin-5-yl)-1H-pyrazol-1-yl)propan-1-amine] | 237
5 | COc1cc2ncn(-c3ccc4c(c3)N(S(C)(=O)=O)CC4)c2cc1-c1ccc(NC(=O)NCCN(C)C)cc1 [TD-634, 1-(2-(dimethylamino)ethyl)-3-(4-(5-methoxy-1-(1-(methylsulfonyl)indolin-6-yl)-1H-benzo[d]imidazol-6-yl)phenyl)urea] | 113

Target: isolated ATM kinase (Homo sapiens (Human), UniProt Q13315)
Test: FRET-based ATM activity assay at Reaction Biology Corp. (IC50^I)
Assay type: biochemical
Conditions: Table 13; read-out: IC50 [nM], IC50^I

Sequence of isolated ATM kinase (Q13315 whole entry): as above

Row | SMILES | IC50 [nM]
6 | COc1cc(-n2cnc3ccc(-c4ccc(NC(=O)NCCN(C)C)cc4)cc32)cc(OC)c1OC [TD-309, 1-(2-(dimethylamino)ethyl)-3-(4-(1-(3,4,5-trimethoxyphenyl)-1H-benzo[d]imidazol-6-yl)phenyl)urea] | 60
7 | CN(C)CCSc1ccc(-c2ccc3ncn(-c4cccc(NS(C)(=O)=O)c4)c3c2)cc1 [TD-472, N-(3-(6-(4-((2-(dimethylamino)ethyl)thio)phenyl)-1H-benzo[d]imidazol-1-yl)phenyl)methanesulfonamide] | 23
8 | CN(C)CCNC(=O)Nc1ccc(-c2ccc3ncn(-c4ccc5c(c4)CCCC5)c3c2)cc1 [TD-547, 1-(2-(dimethylamino)ethyl)-3-(4-(1-(5,6,7,8-tetrahydronaphthalen-2-yl)-1H-benzo[d]imidazol-6-yl)phenyl)urea] | 16

Continued, values first:

Row | IC50 [nM] | SMILES
9 | 10 | COCC(=O)Nc1ccc(-n2cnc3ccc(-c4ccc(NC(=O)NCCN(C)C)cc4)cc32)cc1 [TD-339, N-(4-(6-(4-(3-(2-(dimethylamino)ethyl)ureido)phenyl)-1H-benzo[d]imidazol-1-yl)phenyl)-2-methoxyacetamide]
10 | 7 | COCC(=O)Nc1cccc(-n2cnc3ccc(-c4ccc(NC(=O)NCCN(C)C)cc4)cc32)c1 [TD-344, N-(3-(6-(4-(3-(2-(dimethylamino)ethyl)ureido)phenyl)-1H-benzo[d]imidazol-1-yl)phenyl)-2-methoxyacetamide]
11 | 343 | CN1CCN2C(=O)N(c3ccc(-c4ccc5ncn(-c6cccc(NS(C)(=O)=O)c6)c5c4)cc3)CC2C1 (centres unmarked) [TD-448, N-(3-(6-(4-(7-methyl-3-oxohexahydroimidazo[1,5-a]pyrazin-2(3H)-yl)phenyl)-1H-benzo[d]imidazol-1-yl)phenyl)methanesulfonamide]
